Consider 13 compounds from PMC8480273, “Design, synthesis, and biological evaluation of symmetrical azine derivatives as novel tyrosinase inhibitors” (BMC Chemistry, 2021).

One data set addresses T1, mushroom tyrosinase (Agaricus bisporus, UniProt C7FF04).
T1 construct: purchased Sigma Chemical Co. (St. Louis, MO, USA)
In words: Determination of the inhibition type (Lineweaver–Burk kinetics). Particulars: Lineweaver–Burk plot, L-DOPA substrate. The class given is biochemical. The method, then:
A series of experiments were performed to determine the inhibition kinetics of 3f. The inhibitor concentrations were: 0, 8, 16 μM. Substrate (L-DOPA) concentrations were (0.1, 0.25, 0.5, 0.75 and 1.5 mM) in kinetic studies. Pre-incubation and measurement time was the same as discussed in the mushroom tyrosinase inhibition assay protocol. Maximum initial velocity was determined from the initial linear portion of absorbance up to 10 min after addition of L-DOPA with 1 min interval. The Michaelis constant (Km) and the maximal velocity (Vmax) of the tyrosinase activity were determined by the Lineweaver–Burk plot at various concentrations of L-DOPA as a substrate. The inhibition type of the enzyme was assayed by Lineweaver–Burk plots of the inverse of velocities (1/V) versus the inverse of substrate concentrations 1/[S] mM^−1.

A further data set deals with B16F10 melanoma cells. The experiment in a line: Melanin content assay. The settings on record: B16F10, 10 µM, in comparison with the control. Format: cell-based. The method, then:
B16F10 cells were seeded in six-well plates (1.0 × 10^5 cells/well). After 24 h, the medium was substituted by a fresh one and treated with 3f, and incubated for 48 h. Then, cells were treated with 100 nM α -MSH. […] After incubation cells were washed twice with PBS and harvested using […] trypsin, then dissolved in 300 μL of 1 N NaOH/10% DMSO buffer and boiled for 2 h at 80 °C to solubilize the melanin. The absorbance of the supernatant was measured at 470 nm in a microplate reader. The obtained results were normalized using total protein content.

Data set [1] can be described thus: MTT assay for cell viability, A375. Format: cell-based. Particulars: human, A375 melanoma cells, A375, 10 µM, ± SD. The method, then: The A375 cell line is derived from a human skin melanoma carrying two mutant genes, B-RAF and CDKN2 which are associated with melanoma of sun-damaged skin [48]. To determine the cytotoxicity of 3f in A375 melanoma cell lines, MTT studies were conducted.
(§1) The cytotoxic activity of compound was evaluated in B16F10 cells using 3-(4,5-dimethylthiazol-2-yl)-2,5-diphenyltetrazolium bromide (MTT) assay. Cells were seeded in a 96-well plate (5 × 10^3 cells/well) and incubated at 37 °C with samples at different concentrations for 48 h. Following the treatment, cells were incubated with MTT (0.5 mg mL^−1) at 37 °C for 3 h. The MTT-containing medium was then removed, and 100 μL of DMSO was added to each well, mixed thoroughly with a 10 min shake to dissolve formazan crystals. The absorbance of each well was measured at 540 nm.
Background: Formazan colour is commonly taken as a measure of viable cells.

Data set [2] is described as follows: MTT assay for cell viability, B16F10. Format: cell-based. Particulars: mouse, B16F10 melanoma cells, B16F10, 10 µM, ± SD. As to the method: as §1
A further data set concerns the target tyrosinase. Particulars: cited from earlier work.

Like-named read-outs stand apart in the source and are kept apart here.

T1 sequence (C7FF04 1-392): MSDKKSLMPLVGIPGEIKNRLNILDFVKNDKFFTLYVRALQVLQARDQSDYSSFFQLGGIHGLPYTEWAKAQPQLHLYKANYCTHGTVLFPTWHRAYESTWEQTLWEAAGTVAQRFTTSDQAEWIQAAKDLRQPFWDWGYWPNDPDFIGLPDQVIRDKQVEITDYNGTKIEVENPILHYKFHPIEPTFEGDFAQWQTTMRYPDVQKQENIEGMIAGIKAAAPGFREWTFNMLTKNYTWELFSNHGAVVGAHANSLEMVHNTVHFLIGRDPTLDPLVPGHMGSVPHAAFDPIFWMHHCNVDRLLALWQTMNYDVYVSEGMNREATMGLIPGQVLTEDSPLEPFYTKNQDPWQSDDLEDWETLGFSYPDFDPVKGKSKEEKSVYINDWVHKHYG

The term viability denotes the share of living cells, or the viability signal relative to a control. Read a high viability as less harm to the cells. For the compound `Oc1ccc(C=NN=Cc2ccc(O)cc2O)c(O)c1` [Compound 3f, 4,4′-(Hydrazine-1,2-diylidenebis(methaneylylidene))bis(benzene-1,3-diol)], at mushroom tyrosinase, the “Vmax and Km values in the presence of increasing concentrations of compound” value is “decreased”. The type of inhibition entry on mushroom tyrosinase (inhibitor 0, 8, 16 μM) is recorded as “uncompetitive”. Besides, in the data set with B16F10 melanoma cells, the “Melanin content (%)” value came out at 79.58%. Further, the viability at 48 h, 10 µM in data set [1] was more than 82%; in data set [2], 60.1 ± 9.82%. In general, IC50 refers to the concentration that gives 50% inhibition. As for `CCOc1cc(/C=N/NC(=O)c2ccc(O)cc2)ccc1O` [D], at tyrosinase (hydrazine-containing compound), the IC50 is 9.9 µM. As for `O=C1c2c(O)cc(O)cc2O[C@H](c2ccc(O)cc2O)[C@H]1O` [Dihydromorin], the IC50 on tyrosinase (Fig. 1, flavanol) is 10.3 µM. For the compound `CCOc1cc(/C=N/NC(=O)c2ccc(O)c(OC)c2)ccc1O` [E], the concentration for half-maximal inhibition (IC50) at tyrosinase (hydrazine-containing compound) is 1.58 µM. With `NC(=S)N/N=C/c1ccc([N+](=O)[O-])cc1` [F], the IC50 at tyrosinase (hydrazine-containing compound) is 0.05 µM.

In the case of `O=c1cc(-c2ccc(O)c(O)c2)oc2cc(O)cc(O)c12` [Luteolin], the IC50 at tyrosinase (Fig. 1, flavone) was 60 µM. One may read the Ki as the dissociation constant of the complex between target and ligand, obtained from inhibition or displacement. Consider `O=c1c(O)c(-c2ccc(O)c(O)c2)oc2cc(O)cc(O)c12` [Quercetin], for which the Ki on tyrosinase (Fig. 1, flavonol) is 29 µM. Take `Oc1ccc(/C=C/c2cc(O)cc(O)c2)cc1` [Resveratrol, 3,5,4′-trihydroxy-trans-stilbene]: the IC50 is 1 to 9 µM at tyrosinase (Fig. 1, stilbenoid) and 26.6 µM on tyrosinase (resveratrol). As for `O=C1CC(c2ccc(O)cc2O)Oc2cc(O)cc(O)c21` (stereo not drawn) [Streppogenin], the half-maximal inhibitory concentration (IC50) on tyrosinase (Fig. 1, flavanone) was 1.3 µM.

As to `Oc1ccc(/C=N/c2ccccc2O)c(O)c1` [compound B], the IC50 at tyrosinase (most potent bibenzyl compound of Oozeki et al.) was 0.37 µM. On to Chalcone, for which, at tyrosinase (Fig. 1, chalcone), the IC50 is 8.1 µM. As for Phthalimide, the IC50 on tyrosinase (Fig. 1, phthalimide) was 26.2 µM. Consider Quinazoline, for which the IC50 on tyrosinase (Fig. 1, quinazoline) is 0.46 µM.
